Measured values as given in ChEMBL document CHEMBL4665709, “Rational Avoidance of Protease Cleavage Sites and Symmetrical End-Tagging Significantly Enhances the Stability and Therapeutic Potential of Antimicrobial Peptides” (J Med Chem, 2020).
Activity calls are given as the source filed them. The calls are words filed in the database; no cut-off is given here. Where a SMILES comes first, the peptide text is derived from it.

Experiments:
[1] = Toxicity in C57BL/6 mouse assessed as effect on blood urea nitrogen level at 20 mg/kg, ip measured after 5 days; assay type: organism-based; settings: in vivo, 120 h, time 5 day
Cell membrane [2] = test: Disruption of membrane integrity in Staphylococcus aureus ATCC 29213 assessed as induction of membrane rupture at 2 times MIC after 1 hr by PI-staining based flow cytometry analysis
Cell membrane [3] = test: Induction of structural changes in membrane of Escherichia coli ATCC 25922 assessed as outer membrane separation at 1 times MIC after 1 hr by transmission electron microscopy; assay type: subcellular

CC[C@H](C)[C@H](N)C(=O)N[C@H](C(=O)N[C@H](C(=O)N[C@@H](CS)C(=O)N[C@@H](CCCNC(=N)N)C(=O)N[C@@H](CCCCN)C(=O)N1CCC[C@H]1C(=O)N[C@H](C(=O)N[C@H](C(=O)N[C@@H](CS)C(=O)N[C@@H](CCCNC(=N)N)C(=O)N[C@@H](CCCCN)C(=O)N1CCC[C@H]1C(=O)N[C@H](C(=O)N[C@H](C(=O)N[C@@H](CS)C(=O)N[C@@H](CCCNC(=N)N)C(=O)N[C@@H](CCCCN)C(=O)N1CCC[C@H]1C(=O)N[C@H](C(=O)N[C@H](C(=O)N[C@@H](CS)C(=O)N[C@@H](CCCNC(=N)N)C(=O)N[C@@H](CCCCN)C(=O)N1CCC[C@H]1C(=O)N[C@H](C(=O)N[C@H](C(=O)N[C@H](C(N)=O)[C@@H](C)CC)[C@@H](C)CC)[C@@H](C)CC)[C@@H](C)CC)[C@@H](C)CC)[C@@H](C)CC)[C@@H](C)CC)[C@@H](C)CC)[C@@H](C)CC)[C@@H](C)CC)[C@@H](C)CC (H-IIICRKPIICRKPIICRKPIICRKPIII-NH2)
Activity [1]: Non-Toxic
Activity (Cell membrane [2]): > 90%
Activity (Cell membrane [3]): Active
